From article PMC5111108, “An insecticide resistance-breaking mosquitocide targeting inward rectifier potassium channels in vectors of Zika virus and malaria” (Scientific Reports, 2016)
Like-named read-outs stand apart in the source and are kept apart here.

Legend:
hKir2.1 = biological target: T1, hKir2.1 (Homo sapiens, UniProt P63252); test: Tl+ flux assay, mammalian Kir2.1; format: cell-based
T1 construct: expressed in transfected cells
T1 sequence (P63252 1-427): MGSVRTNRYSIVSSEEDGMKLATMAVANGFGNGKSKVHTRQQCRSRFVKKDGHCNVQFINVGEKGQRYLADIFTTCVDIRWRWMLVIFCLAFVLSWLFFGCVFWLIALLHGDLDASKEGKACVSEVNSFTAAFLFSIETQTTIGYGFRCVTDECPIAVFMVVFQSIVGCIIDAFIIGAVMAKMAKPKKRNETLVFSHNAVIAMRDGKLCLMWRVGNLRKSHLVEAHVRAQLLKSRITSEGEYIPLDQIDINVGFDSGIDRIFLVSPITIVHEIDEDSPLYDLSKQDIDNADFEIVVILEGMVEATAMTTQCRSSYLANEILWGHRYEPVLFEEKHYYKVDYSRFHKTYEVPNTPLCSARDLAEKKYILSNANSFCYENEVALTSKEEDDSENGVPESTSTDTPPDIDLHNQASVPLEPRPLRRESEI
Method: The open-reading frame of a full-length cDNA encoding AnKir1 cloned from An. gambiae Malpighian tubules (Genbank Accession # KJ596497)[17] was sub-cloned into the pcDNA5/TO expression vector (Life Technologies) and used for stable cell line generation, as described previously. Expression constructs for mammalian Kir channels were developed and validated in previous studies by our group.
Tl+ flux assay development
Tl+ flux assays were performed essentiall y as described previousl y (1). Briefl y, stabl y transfect ed T-Rex -HEK- 293- AnKir1 cells were cultured overnight in 384-well plates in media containing DMEM, 10% dial yz ed FBS and 1μg/ m L tetrac ycline to induce channel expression
(Fig. S1A). The next day, the cell culture medium was replaced with a dye-loading solution containing assay buffer (Hanks Balanced Salt Solution with 20 mM HEPES, pH 7.3), 0.01% (w/v) Pluronic F-127 (Li fe Technologies, Carlsbad, CA), and 1.2 μM of the thallium-sensitive dye Thallos-AM (TEFl abs, Austin, TX). Following 1 hr incubation at room temperature, the d ye-loading solution was washed from the plates and replaced with 20 μ L/well of assa y buffer. The plates were transferred t o a Ham amatsu Functional Drug Screening System 6000 (FDSS6000; Hamamatsu, Tokyo, J apan) where 20 μ L/well of test compounds in assay buffer (as prepared below) were added and allowed to incubate with the cells for 20 min. After the incubation period, a baseline recordi ng was collected at 1 Hz for 10 s (excitation 470 ± 20 nm, emission 540 ± 30 nm) followed by a t hallium stimulus buffer addition (10 μL/well) and data collection for an additional 4 min. The Tl + stimulus buffer contains in (mM) 125 NaHCO3, 1.8 CaSO4, 1 MgSO4, 5 glucose, 12 Tl2SO4, 10 HEPES, pH 7.4. For Tl + flux assays on Kir2.x, Kir4.1 and Kir6.2/SUR1 ex pressing cells, the Tl+ stimulus buffer contained 1.8 mM Tl 2SO4. […]
Prism software (GraphPad Software) was used to generate CRC from Tl+ fl ux ..Half-inhibition concentration (IC50) values were calculated from fits using a four parameter logistic equation.
High-throughput screeni ng
The test compounds were transferred to daughter pol yprop ylene 384-well plates (G reiner Bio-One, Monroe, NC) using an Echo555 liquid handler (Labcyte, Sunnyvale, CA), and then diluted into assay buffer to generat e a 2X stock in 0.6% DMSO (0.3% final). […]
Concentration- response curves (CRCs) were gener ated b y screening compounds at 3-fold dilution series (1 nM - 30 μM).
Tl+ flux data were anal yzed as previousl y d escri bed (2, 3) using a combination of Excel (Microsoft Corp, Redmond, WA) with XLfit add-in (IDBS, Guildford, Surre y, UK), Ori ginPro (Ori gin Lab, Northampton, MA), and GraphPad Prism (GraphPad Software, San Diego, CA, USA) software. R aw data were opened in Excel and each data point in a gi ven trace was divided by the first data point from that trace (static ratio) followed by subtraction of data points from control traces gen erated in presence of vehicl e co ntrols. The slope of the fluorescen ce increas e beginning 5 s after Tl+ addition and ending 15 s after Tl + addition was calcu lated.

AnKir1 = biological target: T2, AnKir1 (Anopheles gambiae, UniProt A0A075M2J8); test: Whole-cell patch clamp of AnKir1 in HEK-293T cells; format: cell-based; details: for IC50: currents at -120 mV
T2 sequence (A0A075M2J8 1-555): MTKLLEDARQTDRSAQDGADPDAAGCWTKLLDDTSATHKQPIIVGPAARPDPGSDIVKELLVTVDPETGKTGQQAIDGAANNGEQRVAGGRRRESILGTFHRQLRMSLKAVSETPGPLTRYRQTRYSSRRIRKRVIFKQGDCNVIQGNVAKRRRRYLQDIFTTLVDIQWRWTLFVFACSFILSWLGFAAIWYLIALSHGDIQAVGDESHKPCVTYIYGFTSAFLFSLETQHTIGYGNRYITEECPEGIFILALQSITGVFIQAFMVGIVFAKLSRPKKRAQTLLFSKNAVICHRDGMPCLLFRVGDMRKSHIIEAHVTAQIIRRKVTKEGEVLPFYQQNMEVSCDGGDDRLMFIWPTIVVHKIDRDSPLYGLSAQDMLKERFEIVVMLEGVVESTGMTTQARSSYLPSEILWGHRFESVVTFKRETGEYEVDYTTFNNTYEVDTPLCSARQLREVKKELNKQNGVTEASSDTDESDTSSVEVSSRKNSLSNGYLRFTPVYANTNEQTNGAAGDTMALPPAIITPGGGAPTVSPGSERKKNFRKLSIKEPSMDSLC
Excerpt: Transiently transfected HEK-293T cells expressing AnKir1 cells were voltage clamped in the whole-cell configuration of the patch clamp technique, as described previously. The extracellular bath solution contained (in mM): 135 NaCl, 5 KCl, 2 CaCl2, 1 MgCl2, 5 glucose, 10 HEPES free acid, pH 7.4, 290 mOsm/kg H2O. The pipette solution contained (in mM): 135 KCl, 2 MgCl2, 1 EGTA, 10 HEPES free acid, 2 Na2ATP (Roche, Indianapolis, IN), pH 7.3, 275 mOsm. Cells were voltage clamped at −75 mV, stepped to −120 mV for 200 msec, and then ramped to 120 mV at a rate of 2.4 mV/msec. Concentration-response curves (CRCs) were constructed by measuring the effects of increasing doses of inhibitors on AnKir1 currents at −120 mV. All recordings were made at room temperature (20–23 °C).
Patch clamp electrophysiology
Patch electrodes were pulled from silanized 1.5 mm outer diameter borosilicate microhematocrit tubes using a P-1000 Flaming/Brown micropipette puller (Sutter Instrument, Novato CA, USA). Electrode resistance ranged from 2 -4 MΩ. Whole-cell currents were recorded under voltage-clamp conditions using an Axopatch 200B amplifier (Molecular D evices, Sunn yvale, CA). Electri cal conn ections to the amplifier were made using Ag/AgCl wires and 3 M KCl/agar bridges. El ectroph ysiologi cal data were collected at 5 kHz and filtered at 1 kHz.
Data acquisition and anal ys is were performed using pClamp 9.2 software (Axon Instruments). […]

[1] = Tl+ flux assay, read-out: Kir2.1 IC50 (Tl+ flux)
[2] = Tl+ flux, Tables S2/S3 and supplemental text, read-out: hKir2.1 IC50

SMILES | IC50 (hKir2.1; [2]) | IC50 (AnKir1) | further results
O=C(Cn1nc(C(F)(F)F)c2c1CCCC2)N1CCCc2ccccc21 [VU041, 1-(3,4-dihydroquinolin-1(2H)-yl)-2-(3-(trifluoromethyl)-4,5,6,7-tetrahydro-1H-indazol-1-yl)ethan-1-one] | 11.3 µM | 0.496 µM | IC50 (hKir2.1; [1]): 12.7 µM; Hill coefficient (patch clamp, AnKir1) (AnKir1): 1.3; time-course and reversibility of AnKir1 inhibition (AnKir1; 10 μM, wash-out with control saline): rapid and partially reversible
O=C(Cn1nc(C(F)(F)F)c2c1CCCC2)N1CCCC(c2ccccc2)C1 (stereo not shown) [Compound 12] | > 30 µM |  | 
CC1CC(C)CN(C(=O)Cn2nc(C(F)(F)F)c3c2CCCC3)C1 (stereo not shown) [Compound 13] | > 30 µM |  | 
O=C(Cn1nc(C(F)(F)F)c2c1CCCC2)N1CCCC2CCCCC21 (stereo not shown) [Compound 9] | > 30 µM |  | 
O=C(Cn1ncc2c1CCOC2)N1CCCc2ccccc21 [VU730] |  | 0.717 µM | IC50 (hKir2.1; [1]): > 30 µM
O=C(Cn1nc(C(F)(F)F)c2c1CCCC2)NC1CCC1 [VU937] |  | 29.7 µM | AnKir1 inhibition relative to VU041 (fold less) (AnKir1; patch clamp): 60 fold
O=C1CCCc2c1ccn2CC(=O)N1CCCc2ccccc21 [Compound 4] | > 30 µM |  | 
